Laboratory results from patent US9815819B2, “Complement pathway modulators and uses thereof” (priority 2012, dated 2017).

Biological target: Recombinant human factor D (Homo sapiens (Human), UniProt P00746)
Assay: Human Complement Factor D Assay: Method 1
Type: biochemical
Conditions: Factor D inhibition, Method 1: 10 nM factor D, 1 hour incubation with compound at room temperature, substrate Z-Lys-thiobenzyl, fluorescence readout; read-out: IC50
Description: Recombinant human factor D (expressed in E. coli and purified using standard methods) at 10 nM concentration is incubated with test compound at various concentrations for 1 hour at room temperature in 0.1 M Hepes buffer, pH 7.5, containing 1 mM MgCl2, 1 M NaCl and 0.05% CHAPS. […] IC50 values are calculated from percentage of inhibition of complement factor D-activity as a function of test compound concentration.

Sequence of Recombinant human factor D (P00746 26-253): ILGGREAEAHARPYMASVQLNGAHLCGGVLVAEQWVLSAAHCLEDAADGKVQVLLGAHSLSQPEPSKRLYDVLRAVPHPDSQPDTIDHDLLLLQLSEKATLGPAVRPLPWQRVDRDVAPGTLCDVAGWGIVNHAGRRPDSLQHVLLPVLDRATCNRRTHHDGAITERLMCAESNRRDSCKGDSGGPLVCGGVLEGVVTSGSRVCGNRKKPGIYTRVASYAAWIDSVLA

Row | IC50 | SMILES
1 | 172 nM | CC(=O)c1nn(CC(=O)N2[C@H](C(=O)N[C@@H]3C[C@H]3c3ccccc3)C[C@@]3(CO)C[C@@H]23)c2ncccc12 [Example 28, (1R,3S,5S)-2-[2-(3-Acetyl-pyrazolo[3,4-b]pyridin-1-yl)-acetyl]-5-hydroxymethyl-2-aza-bicyclo[3.1.0]hexane-3-carboxylic acid((1R,2S)-2-phenyl-cyclopropyl)-amide]
2 | 119 nM | CC(=O)c1nn(CC(=O)N2[C@H](C(=O)N[C@@H]3C[C@H]3c3ccccc3)C[C@@]3(CO)C[C@@H]23)c2cnccc12 [Example 29, (1R,3S,5S)-2-[2-(3-Acetyl-pyrazolo[3,4-c]pyridin-1-yl)-acetyl]-5-hydroxymethyl-2-aza-bicyclo[3.1.0]hexane-3-carboxylic acid((1R,2S)-2-phenyl-cyclopropyl)-amide]
3 | 37 nM | CC(=O)c1nn(CC(=O)N2[C@H](C(=O)N[C@@H]3C[C@H]3c3ccccc3Cl)C[C@@]3(CO)C[C@@H]23)c2cnccc12 [Example 31, (1R,3S,5S)-2-[2-(3-Acetyl-pyrazolo[3,4-c]pyridin-1-yl)-acetyl]-5-hydroxymethyl-2-aza-bicyclo[3.1.0]hexane-3-carboxylic acid[(1R,2S)-2-(2-chloro-phenyl)-cyclopropyl]-amide]
4 | 326 nM | CC(=O)c1nn(CC(=O)N2[C@@H]3C[C@@H]3C[C@H]2C(=O)NC2CC2c2ccc(OC(F)F)cc2)c2cnccc12 (stereo partly drawn) [Example 32, (1R,3S,5R)-2-[2-(3-Acetyl-pyrazolo[3,4-c]pyridin-1-yl)-acetyl]-2-aza-bicyclo[3.1.0]hexane-3-carboxylic acid[2-(4-difluoromethoxy-phenyl)-cyclopropyl]-amide]
5 | 550 nM | CC(=O)c1nn(CC(=O)N2[C@@H]3C[C@@H]3C[C@H]2C(=O)NC2CC2c2cccc(C(F)(F)F)c2)c2cnccc12 (stereo partly drawn) [Example 33, (1R,3S,5R)-2-[2-(3-Acetyl-pyrazolo[3,4-c]pyridin-1-yl)-acetyl]-2-aza-bicyclo[3.1.0] hexane-3-carboxylic acid [2-(3-trifluoromethyl-phenyl)-cyclopropyl]-amide]
6 | 112 nM | CC(=O)c1nn(CC(=O)N2[C@@H]3C[C@@H]3C[C@H]2C(=O)NC2CC2c2ccc(C)c(C)c2)c2cnccc12 (stereo partly drawn) [Example 34, (1R,3S,5R)-2-[2-(3-Acetyl-pyrazolo[3,4-c]pyridin-1-yl)-acetyl]-2-aza-bicyclo[3.1.0] hexane-3-carboxylic acid [2-(3,4-dimethyl-phenyl)-cyclopropyl]-amide]
7 | 902 nM | CC(=O)c1nn(CC(=O)N2[C@@H]3C[C@@H]3C[C@H]2C(=O)NC2CC(c3ccccc3)C2)c2ncccc12 (stereo partly drawn) [Example 35, (1R,3S,5R)-2-[2-(3-Acetyl-pyrazolo[3,4-b]pyridin-1-yl)-acetyl]-2-aza-bicyclo[3.1.0] hexane-3-carboxylic acid (3-phenyl-cyclobutyl)-amide]
8 | 466 nM | CC(=O)c1nn(CC(=O)N2[C@@H]3C[C@@H]3C[C@H]2C(=O)NC2CC(c3ccccc3F)C2)c2ncccc12 (stereo partly drawn) [Example 36, (1R,3S,5R)-2-[2-(3-Acetyl-pyrazolo[3,4-b]pyridin-1-yl)-acetyl]-2-aza-bicyclo[3.1.0] hexane-3-carboxylic acid [3-(2-fluoro-phenyl)-cyclobutyl]-amide]
9 | 1060 nM | CC(=O)c1nn(CC(=O)N2[C@@H]3C[C@@H]3C[C@H]2C(=O)NC2CCC(c3ccccc3)CC2)c2cnccc12 (stereo partly drawn) [Example 37, (1R,3S,5R)-2-[2-(3-Acetyl-pyrazolo[3,4-c]pyridin-1-yl)-acetyl]-2-aza-bicyclo[3.1.0] hexane-3-carboxylic acid (4-phenyl-cyclohexyl)-amide]
10 | 142 nM | NC(=O)c1nn(CC(=O)N2C[C@H](F)C[C@H]2C(=O)N[C@@H]2C[C@H]2c2ccccc2F)c2cnccc12 [Example 40, 1-(2-{(2S,4R)-4-Fluoro-2-[(1R,2S)-2-(2-fluoro-phenyl)-cyclopropylcarbamoyl]-pyrrolidin-1-yl}-2-oxo-ethyl)-1H-pyrazolo[3,4-c]pyridine-3-carboxylic acid amide]
11 | 1190 nM | NC(=O)c1nn(CC(=O)N2C[C@H](F)C[C@H]2C(=O)N[C@H]2C[C@@H]2c2ccccc2F)c2cnccc12 [Example 41, 1-(2-{(2S,4R)-4-Fluoro-2-[(1S,2R)-2-(2-fluoro-phenyl)-cyclopropylcarbamoyl]-pyrrolidin-1-yl}-2-oxo-ethyl)-1H-pyrazolo[3,4-c]pyridine-3-carboxylic acid amide]
12 | 3650 nM | NC(=O)c1nn(CC(=O)N2[C@@H]3C[C@@H]3C[C@H]2C(=O)N[C@H]2C[C@]2(F)c2ccccc2)c2cnccc12 [Example 42, 1-{2-[(1R,3S,5R)-3-((1S,2S)-2-Fluoro-2-phenyl-cyclopropylcarbamoyl)-2-aza-bicyclo[3.1.0]hex-2-yl]-2-oxo-ethyl}-1H-pyrazolo[3,4-c]pyridine-3-carboxylic acid amide]
13 | 214 nM | NC(=O)c1nn(CC(=O)N2[C@@H]3C[C@@H]3C[C@H]2C(=O)N[C@@H]2C[C@@]2(F)c2ccccc2)c2cnccc12 [Example 43, 1-{2-[(1R,3S,5R)-3-((1R,2R)-2-Fluoro-2-phenyl-cyclopropylcarbamoyl)-2-aza-bicyclo[3.1.0]hex-2-yl]-2-oxo-ethyl}-1H-pyrazolo[3,4-c]pyridine-3-carboxylic acid amide]

Row | SMILES | IC50
14 | NC(=O)c1nn(CC(=O)N2[C@@H]3C[C@@H]3C[C@H]2C(=O)N[C@@H]2C[C@@]2(F)c2ccccc2)c2cc(F)c(F)cc12 [Example 25, 5,6-Difluoro-1-{2-[(1R,3S,5R)-3-((1R,2R)-2-fluoro-2-phenyl-cyclopropylcarbamoyl)-2-aza-bicyclo[3.1.0]hex-2-yl]-2-oxo-ethyl}-1H-indazole-3-carboxylic acid amide] | 110 nM
15 | NC(=O)c1nn(CC(=O)N2[C@@H]3C[C@@H]3C[C@H]2C(=O)N[C@@H]2C[C@@]2(F)c2ccccc2)c2ccc(F)cc12 [Example 26, 5-Fluoro-1-{2-[(1R,3S,5R)-3-((1R,2R)-2-fluoro-2-phenyl-cyclopropylcarbamoyl)-2-aza-bicyclo[3.1.0]hex-2-yl]-2-oxo-ethyl}-1H-indazole-3-carboxylic acid amide] | 60 nM
16 | NC(=O)c1nn(CC(=O)N2[C@H](C(=O)N[C@@H]3C[C@H]3c3ccccc3Cl)C[C@@]3(CO)C[C@@H]23)c2ccccc12 [Example 30, 1-(2-{(1R,3S,5S)-3-[(1R,2S)-2-(2-Chloro-phenyl)-cyclopropylcarbamoyl]-5-hydroxymethyl-2-aza-bicyclo[3.1.0]hex-2-yl}-2-oxo-ethyl)-1H-indazole-3-carboxylic acid amide] | 22 nM
17 | NC(=O)c1nn(CC(=O)N2[C@@H]3C[C@@H]3C[C@H]2C(=O)N[C@H]2C[C@]2(F)c2ccccc2)c2ccccc12 [Example 38, 1-{2-[(1R,3S,5R)-3-((1S,2S)-2-fluoro-2-phenyl-cyclopropylcarbamoyl)-2-aza-bicyclo[3.1.0]hex-2-yl]-2-oxo-ethyl}-1H-indazole-3-carboxylic acid amide] | 635 nM
18 | NC(=O)c1nn(CC(=O)N2[C@@H]3C[C@@H]3C[C@H]2C(=O)N[C@@H]2C[C@@]2(F)c2ccccc2)c2ccccc12 [Example 39, 1-{2-[(1R,3S,5R)-3-((1R,2R)-2-fluoro-2-phenyl-cyclopropylcarbamoyl)-2-aza-bicyclo[3.1.0]hex-2-yl]-2-oxo-ethyl}-1H-indazole-3-carboxylic acid amide] | 48 nM
